Format in all cases: cell-based
The test system of experiment [1] is NCI-1H2052. Kind of experiment: Mesothelioma cell line proliferation assay, H2052 (ATPlite). The following applies: Homo sapiens, NCI-H2052, 144 h, 6 days with compound, read-out: H2025 (EC50). On the procedure:
Mesothelioma cell lines, NCI-1H226 and NCI-1H2052 (all sourced from the ATCC cell culture collection) are plated in 96-well plates (Corning® 96 Well White Polystyrene Microplate clear flat bottom, white polystyrene (TC-Treated)), at 1500 cells/well in full medium (RPMI 1640 ATCC modification with L-glutamine, HEPES, Phenol Red, Sodium Pyruvate, High glucose, Low sodium bicarbonate and 10% fetal bovine serum). Cells are incubated overnight at 37° C. in an incubator with 5% C02. Then compounds, dissolved in DMSO, are added in dose-response. Cells are incubated with compound dilutions for another 6 days at 37° C. in an incubator with 5% C02. Cell viability is quantitated using the ATPlite kit (Perkin-Elmer) and the luminescence is read-out using an Envision instrument (Perkin-Elmer). The amount of relative light units produced using the ATPlite kit is used to calculated percent of inhibition.
The activities of some example compounds are depicted in the table below. The activity ranges A, B and C refer to EC50 values in the mesothelioma cell line proliferation assay as described as follows: “A”: EC50<1 μM; “B”: 1 μM s EC50≤10 μM and “C”: EC50≥10 μM; NT: not tested.

Experiment [2] concerns Caov-3. Kind of experiment: Cancer cell line proliferation assay (CellTiter-Glo), Caov-3. The following applies: Homo sapiens, 144 h, Ovary, LATS2 HOM DEL, 6 days. The method, then: (§1) All the cell lines are cultured in the media supplemented with 10-20% fetal bovine serum, in the temperature of 37° C., 5% CO2 and 95% humidity. The indicated cell lines (all sourced from the ATCC cell culture collection) are plated in 96-Well Flat Clear Bottom Black Polystyrene TC-Treated Microplates with the final cell density of 4×10^3 cells/well. Cells are incubated overnight and then compounds, dissolved in DMSO, are added in dose-response. Cells are incubated with compound dilutions for another 6 days. Cell viability is quantitated using CellTiter-Glo reagent (Perkin Elmer) and measured using an EnVision Multi Label Reader.

Experiment [3] deals with Calu-1. Kind of experiment: Cancer cell line proliferation assay (CellTiter-Glo), Calu-1. The following applies: Homo sapiens, 144 h, Lung (squamous), NF2 HOM DEL/LATS2 HOM DEL, 6 days. On the procedure: as §1
For experiment [4], the system named is selected tumor cell lines. Kind of experiment: Cancer cell line proliferation assays, whole panel of selected tumor cell lines. The following applies: cancer cell lines of Table 5. The method, then: as §1
The test system of experiment [5] is NCI-1H226. The experiment in a line: Mesothelioma cell line proliferation assay, H226 (ATPlite). Particulars: Homo sapiens, NCI-H226, 144 h, 6 days with compound. In a few lines:
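H226 and H2052 mesothelioma cells, 1500 per well in RPMI with 10% FBS, attached overnight and then exposed to DMSO-dissolved compounds in dose-response for 6 days at 37 °C. Viability measured by ATPlite luminescence, converted to percent inhibition for EC50.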
For orientation: ATP-based viability assays read luminescence as a measure of living cells.

Bounds are passed on as bounds.

The EC50 is the concentration needed to bring the measured effect to its halfway point. One may read the GI50 as the concentration that inhibits growth by half. Higher therefore signals less potent growth inhibition. `C=CC(=O)NC1Cc2ccccc2N(c2ccc(C(F)(F)F)cc2)C1` (centres unmarked) [compound 001, N-(1-(4-(trifluoromethyl)phenyl)-1,2,3,4-tetrahydroquinolin-3-yl)acrylamide]: the half-maximal effective concentration (EC50) in experiment [1] and in experiment [5] was under 1 µM each time. Moreover, the GI50 amounted to 0.11 µM in experiment [2] and 0.12 µM in experiment [3]. Further, the “inhibitory activity on the cell proliferation of the selected tumor cell lines” value in experiment [4] was “strong inhibitory activity”.

The values are drawn from patent US20240025856A1, “1,2,3,4-TETRAHYDROQUINOLINE DERIVATIVES AS INHIBITORS OF THE YAP/TAZ-TEAD ACTIVATION FOR TREATING CANCER” (KATHOLIEKE UNIVERSITEIT LEUVEN, priority 2020, published 2024).
